The supplement of paper PMC13380429

What was measured:
Conditions in all cases: 72 h
[1] = tested on: Caco-2; assay: relative viability EC50 (midpoint between 100% and the lowest measured viability); higher = less toxic
[2] = tested on: U2OS; assay: as above
[3] = tested on: Vero E6; assay: as above
[4] = tested on: Calu-3; assay: as above
[5] = tested on: HepG2; assay: as above
[6] = tested on: Caco-2; assay: cell viability relative to DMSO; higher = less toxic
[7] = tested on: U2OS; assay: as above
[8] = tested on: Vero E6; assay: as above
[9] = tested on: Calu-3; assay: as above
[10] = tested on: HepG2; assay: as above
[11] = tested on: Caco-2; assay: drug sensitivity score (DSS) for viability; higher = more toxic; extreme values may be limits of the assay
[12] = tested on: U2OS; assay: as above
[13] = tested on: Vero E6; assay: as above
[14] = tested on: Calu-3; assay: as above
[15] = tested on: HepG2; assay: as above

Structure (SMILES)	relative viability EC50 [1]	relative viability EC50 [2]	relative viability EC50 [3]	relative viability EC50 [4]	relative viability EC50 [5]	cell viability ([6]; 1 nM)	cell viability ([6]; 10 nM)	cell viability ([6]; 100 nM)	cell viability ([6]; 1000 nM)	cell viability ([6]; 10000 nM)	cell viability ([7]; 1 nM)	cell viability ([7]; 10 nM)	cell viability ([7]; 100 nM)	cell viability ([7]; 1000 nM)	cell viability ([7]; 10000 nM)	cell viability ([8]; 1 nM)	cell viability ([8]; 10 nM)	cell viability ([8]; 100 nM)	cell viability ([8]; 1000 nM)	cell viability ([8]; 10000 nM)	cell viability ([9]; 1 nM)	cell viability ([9]; 10 nM)	cell viability ([9]; 100 nM)	cell viability ([9]; 1000 nM)	cell viability ([9]; 10000 nM)	cell viability ([10]; 1 nM)	cell viability ([10]; 10 nM)	cell viability ([10]; 100 nM)	cell viability ([10]; 1000 nM)	cell viability ([10]; 10000 nM)	drug sensitivity score [11]	drug sensitivity score [12]	drug sensitivity score [13]	drug sensitivity score [14]	drug sensitivity score [15]
CN(C)CCCSc1ccccc1NC(=O)/C=C/c1ccccc1 [cinanserin]	> 10 µM	> 10 µM	> 10 µM	> 10 µM	> 10 µM	92.4%	95%	94.4%	97.3%	102%	108%	99.6%	98.5%	97.2%	97.6%	99.4%	99.9%	97%	101%	87.9%	108%	98.6%	98.1%	90.7%	98.9%	94.3%	94.1%	101%	102%	85.8%	0	0	0	0	0.1
OC[C@H]1O[C@@H](Oc2cc(O)cc(/C=C/c3ccc(O)cc3)c2)[C@H](O)[C@@H](O)[C@@H]1O [polydatin]	> 10 µM	> 10 µM	> 10 µM	> 10 µM	> 10 µM	99.4%	97.2%	97.4%	101%	96.3%	101%	103%	102%	99.4%	98.2%	101%	104%	95.7%	100%	99%	100%	101%	96.9%	103%	102%	98.1%	93.9%	93.2%	96.6%	96.8%	0	0	0	0	0
CN1CCCN=C1COC(=O)C(O)(c1ccccc1)C1CCCCC1 (stereo not given) [oxyphencyclimine]	> 10 µM	> 10 µM	> 10 µM	> 10 µM	> 10 µM	99.8%	99.3%	100%	106%	102%	97.2%	101%	94.6%	97.3%	93%	103%	104%	100%	91.7%	91.8%	93%	102%	102%	98.8%	94.7%	93.6%	102%	105%	91.3%	92.2%	0	0	0	0	0
NS(=O)(=O)c1cc2c(cc1Cl)N=C(CSCc1ccccc1)NS2(=O)=O [benzthiazide]	> 10 µM	> 10 µM	> 10 µM	> 10 µM	> 10 µM	103%	101%	93.2%	96.2%	80.7%	100%	98.8%	94.6%	98.4%	96%	102%	98.5%	98.4%	101%	98.9%	84.5%	104%	101%	106%	101%	105%	86%	101%	94.3%	89.7%	0.9	0	0	0	0
CCCC(C(=O)OCCN(CC)CC)(c1ccccc1)c1ccccc1 [proadifen]	> 10 µM	> 10 µM	> 10 µM	> 10 µM	> 10 µM	89.8%	101%	102%	101%	87.9%	93%	97.9%	99.1%	102%	98.5%	97.9%	96%	98.4%	97.3%	99.8%	99.3%	93.1%	101%	105%	99.6%	101%	100%	92.6%	95%	88.1%	0	0	0	0	0
C1N2CN3CN1CN(C2)C3 [methenamine]	> 10 µM	> 10 µM	> 10 µM	> 10 µM	> 10 µM	94.6%	99.8%	96.5%	104%	106%	89.9%	97.5%	100%	98.2%	99.7%	98.7%	92.3%	93.1%	94.6%	102%	97.1%	96.4%	97.2%	102%	93.5%	98.4%	96.2%	102%	105%	106%	0	0	0	0	0
CCc1c2c(nc3ccc(O)cc13)-c1cc3c(c(=O)n1C2)COC(=O)[C@]3(O)CC [SN-38]	0.183 µM	0.326 µM	0.65 µM	0.0579 µM	0.0122 µM	99.4%	89.5%	73%	34.1%	20.7%	107%	102%	79.9%	25.8%	4.9%	102%	101%	71.2%	58.3%	9.6%	112%	85.9%	54%	25.1%	28.8%	86.6%	48.6%	29.5%	5.6%	2.4%	15.6	16.2	11.9	19.7	32.4
OC[C@@H](O)[C@@H](O)CO [erythritol]	> 10 µM	> 10 µM	> 10 µM	> 10 µM	> 10 µM	94.1%	101%	97.9%	91%	100%	94.8%	98.1%	97.8%	99.6%	97.7%	105%	102%	101%	102%	98.1%	102%	97.9%	112%	97%	98.7%	108%	116%	100%	97.1%	98.9%	0	0	0	0	0
NS(=O)(=O)c1cc2c(cc1Cl)NC(C1CC3C=CC1C3)NS2(=O)=O (stereo not given) [cyclothiazide]	> 10 µM	> 10 µM	> 10 µM	> 10 µM	> 10 µM	92.4%	89%	103%	81.8%	91.2%	93.7%	95.2%	99.9%	94.3%	97.7%	94.4%	102%	91.2%	92.5%	105%	101%	96.7%	95.3%	112%	100%	90.8%	104%	88.9%	99.9%	93.8%	0	0	0	0	0
CCCCNc1ccc(C(=O)OCCN(C)C)cc1 [tetracaine]	> 10 µM	> 10 µM	> 10 µM	> 10 µM	> 10 µM	101%	92.7%	105%	100%	101%	104%	97.4%	98.7%	98.2%	102%	107%	105%	103%	101%	99.5%	107%	101%	98.2%	98.4%	108%	99.5%	99.3%	104%	104%	94.3%	0	0	0	0	0
Cc1ccc(F)cc1C(=O)Nc1ccc(C(=O)N2Cc3cccn3Cc3ccccc32)c(Cl)c1 [lixivaptan]	> 10 µM	> 10 µM	> 10 µM	> 10 µM	> 10 µM	96.6%	88.4%	91.4%	88.3%	95%	101%	96.5%	101%	96.3%	97.7%	106%	103%	102%	102%	95.8%	102%	98.6%	96.2%	105%	108%	114%	108%	99.5%	103%	84.2%	0	0	0	0	0.2
